Series [1] addresses T1, hGIPR (Homo sapiens, UniProt P48546).
T1 sequence (P48546 22-466): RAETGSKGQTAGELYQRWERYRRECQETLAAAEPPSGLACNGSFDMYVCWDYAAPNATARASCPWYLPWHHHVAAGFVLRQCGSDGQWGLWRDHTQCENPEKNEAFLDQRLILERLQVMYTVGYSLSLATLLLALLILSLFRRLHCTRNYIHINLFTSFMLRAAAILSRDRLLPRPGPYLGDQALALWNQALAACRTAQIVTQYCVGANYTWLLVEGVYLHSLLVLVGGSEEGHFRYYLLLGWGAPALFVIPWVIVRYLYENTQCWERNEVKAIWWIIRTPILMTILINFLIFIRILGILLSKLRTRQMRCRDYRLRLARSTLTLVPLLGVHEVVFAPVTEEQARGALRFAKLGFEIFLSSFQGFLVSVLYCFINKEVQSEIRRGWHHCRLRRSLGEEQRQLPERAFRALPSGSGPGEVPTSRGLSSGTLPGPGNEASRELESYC
The series can be described thus: Functional cAMP activity in the presence of 1% HSA. In kind it is cell-based. The conditions noted are these: read-out: cAMP Rel EC50, hGIPR.

Series [2] deals with T2, hGLP-1R (Homo sapiens, UniProt P43220). The series can be described thus: Functional cAMP activity in the presence of 1% HSA. It is filed as cell-based. The conditions noted are these: read-out: cAMP Rel EC50, hGLP-1R.
The target in another series is human GcgR (Homo sapiens, UniProt P47871). Put plainly: Functional cAMP activity in the presence of 1% HSA. In kind it is cell-based. The conditions noted are these: read-out: cAMP Rel EC50, hGcgR.
For series [3], the target named is T1, hGIPR. Put plainly: Functional cAMP activation in the presence of 0.1% casein (no HSA). In kind it is cell-based. The conditions noted are these: read-out: Relative cAMP EC50, hGIPR.
For series [4], the target named is T2, hGLP-1R. The series is described as above. It is filed as cell-based. The conditions noted are these: read-out: Relative cAMP EC50, hGLP-1R.
A further series deals with hGcgR (Homo sapiens, UniProt P47871). The series is described as above. In kind it is cell-based. Particulars: read-out: Relative cAMP EC50, hGcgR.
The next series concerns the target human GLP1-R (Homo sapiens, UniProt P43220). Put plainly: GLP1-R internalization assay in HEK293 cells. It is filed as cell-based. Particulars: for EC50: HEK293 cells expressing SNAP-GLP-1R, read-out: GLP1R Internalization EC50; for Internalization % TOP: normalized to maximum concentration of GLP-1 (100%).
In series [5] the test system is Intestinal organoid from Göttingen minipig jejunum tissue, 2D monolayer. The series can be described thus: Cell based in vitro permeability (Papp) assay. It is filed as in vitro ADME. Here is the method: Intestinal organoid from Göttingen minipig jejunum tissue and its 2D monolayer are generated using the protocol previously described ([…]-Thiele, […].; Wells, J. M., Optimized procedures for generating an enhanced, near physiological 2D culture system from porcine intestinal organoids. […] After 7 days of culture, organoids are dissociated into single cells by TrypLE (GIbco), and the single cell suspension is added in 24-well transparent transwell inserts (0.3 cm^2, Falcon, BD). […] Samples from the basal compartment are collected at 20 min in the presence of C10. Peptide concentrations in the apical and basal compartments are measured by LC/MS, and the apparent permeability coefficient (Papp) is calculated as previously described (Twarog, C.; Liu, K.; O'Brien, P. J.; Dawson, […] head-to-head Caco-2 assay comparison of the mechanisms of action of the intestinal permeation enhancers: SNAC and sodium caprate (C10).

[6] abbreviates: in the presence of 0.1% casein (no HSA), geometric mean.

Where two headings read alike, the source gives them in different places. Starred links: 1 amine or outer side, 2 acyl side, 3 side chain; linkers in the order of their positions; H or OH if unused. Non-standard residues stand in square brackets, D forms with d. Groups on a side chain read outwards from the residue. No end group written: not given here. *: point of attachment. C18 diacid = O=C(O)CCCCCCCCCCCCCCCCC(=O)*; αMePhe(2-F) = C[C@](N)(Cc1ccccc1F)C(=O)O; γGlu = O=C(O)[C@H](CCC(=O)[*:2])N[*:1]; αMe4Pal = C[C@](N)(Cc1ccncc1)C(=O)O; αMeY = C[C@](N)(Cc1ccc(O)cc1)C(=O)O; 4Pal = N[C@@H](Cc1ccncc1)C(=O)O; αMeL = CC(C)C[C@](C)(N)C(=O)O; αMeS = C[C@](N)(CO)C(=O)O; Orn = NCCC[C@H](N)C(=O)O; AEEA = NCCOCCOCC(=O)O; Aib = CC(C)(N)C(=O)O
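Wherever Relative cAMP EC50, hGIPR is given: intracellular cAMP rise after 30 min at 37 °C read by HTRF against a standard curve, scaled between buffer alone (0%) and top control ligand concentration (100%), four-parameter fit.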
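Wherever Relative cAMP EC50, hGLP-1R is given: intracellular cAMP rise after 30 min at 37 °C read by HTRF, normalized between buffer only (0%) and maximal control ligand (100%), four-parameter variable-slope fit.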
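Wherever Relative cAMP EC50, hGcgR is given: intracellular cAMP rise after 30 min at 37 °C, read by HTRF against a cAMP standard curve, scaled from buffer only (0%) to maximal control ligand response (100%).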

T2 sequence (P43220 24-463): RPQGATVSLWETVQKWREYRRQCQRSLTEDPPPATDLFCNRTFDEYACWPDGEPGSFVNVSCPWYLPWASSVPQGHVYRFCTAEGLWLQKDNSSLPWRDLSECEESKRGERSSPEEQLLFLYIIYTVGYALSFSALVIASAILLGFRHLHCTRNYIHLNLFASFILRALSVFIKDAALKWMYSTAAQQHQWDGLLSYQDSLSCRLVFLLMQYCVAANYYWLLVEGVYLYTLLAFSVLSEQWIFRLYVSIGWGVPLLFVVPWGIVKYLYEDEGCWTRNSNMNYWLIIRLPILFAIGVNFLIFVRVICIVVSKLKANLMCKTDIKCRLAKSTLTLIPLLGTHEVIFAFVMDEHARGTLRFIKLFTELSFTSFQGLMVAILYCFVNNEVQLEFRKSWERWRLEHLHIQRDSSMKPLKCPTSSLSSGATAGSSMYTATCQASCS
human GLP1-R, sequence (P43220 24-463): as above
human GcgR, sequence (P47871 26-477): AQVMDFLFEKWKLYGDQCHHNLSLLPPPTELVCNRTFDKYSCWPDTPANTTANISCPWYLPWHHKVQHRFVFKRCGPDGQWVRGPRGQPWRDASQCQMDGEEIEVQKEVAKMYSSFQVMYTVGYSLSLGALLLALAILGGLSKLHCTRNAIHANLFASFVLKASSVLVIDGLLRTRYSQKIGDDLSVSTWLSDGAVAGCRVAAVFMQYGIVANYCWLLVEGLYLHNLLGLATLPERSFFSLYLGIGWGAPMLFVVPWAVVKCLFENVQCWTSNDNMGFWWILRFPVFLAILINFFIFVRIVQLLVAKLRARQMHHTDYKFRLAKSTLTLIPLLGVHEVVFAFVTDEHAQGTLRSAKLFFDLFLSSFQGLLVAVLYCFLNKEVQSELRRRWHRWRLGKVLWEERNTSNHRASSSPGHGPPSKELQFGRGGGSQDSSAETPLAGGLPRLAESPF
hGcgR, sequence (P47871 26-477): as above

The EC50 is the midpoint of the concentration-response curve. As for “H-Y[Aib]QGTFTSD[4Pal]SR[αMeL]LDKK([AEEA-γGlu-C18 diacid])AQ[αMe4Pal]AFIEYLIE[Aib]GESSGAPPPSGE-NH2 [Example 225]”, the EC50 on hGIPR [1] stood at 40.2 nM; at hGLP-1R [2] it was 438 nM; at human GcgR, 561 nM; at hGIPR [3] (setting [6]) it was 0.213 nM; at hGLP-1R [4] (setting [6]), 2.44 nM; at hGcgR (setting [6]), 2.36 nM. The EC50 on human GLP1-R was 26 nM. Further, the “Internalization % TOP” value at human GLP1-R was 56.7%. Further, the “Relative Papp (Compared to internal standard)” value (from here on “Relative Papp”) in series [5] is reported as 0.48.

As for `CC[C@H](C)[C@H](NC(=O)[C@H](Cc1ccccc1)NC(=O)[C@H](C)NC(=O)C(C)(C)NC(=O)[C@H](CCC(N)=O)NC(=O)[C@H](C)NC(=O)[C@H](CCCCNC(=O)COCCOCCNC(=O)CC[C@H](NC(=O)CCCCCCCCCCCCCCCCC(=O)O)C(=O)O)NC(=O)[C@H](CCCCN)NC(=O)[C@H](CC(=O)O)NC(=O)[C@H](CC(C)C)NC(=O)[C@](C)(CC(C)C)NC(=O)[C@H](CCCN)NC(=O)[C@H](CO)NC(=O)[C@H](Cc1ccccc1)NC(=O)[C@H](CC(=O)O)NC(=O)[C@H](CO)NC(=O)[C@@H](NC(=O)[C@H](Cc1ccccc1)NC(=O)[C@@H](NC(=O)CNC(=O)[C@H](CCC(N)=O)NC(=O)C(C)(C)NC(=O)[C@@H](N)Cc1ccc(O)cc1)[C@@H](C)O)[C@@H](C)O)C(=O)N[C@@H](CCC(=O)O)C(=O)N[C@@H](Cc1ccc(O)cc1)C(=O)N[C@@H](CC(C)C)C(=O)N[C@@H](CC(C)C)C(=O)N[C@@H](CCC(=O)O)C(=O)N[C@H](C)C(=O)NCC(=O)N[C@@H](CCCCNC(C)=O)C(=O)N[C@@H](CO)C(=O)N[C@@H](CO)C(=O)NCC(=O)N[C@@H](C)C(=O)N1CCC[C@H]1C(=O)N1CCC[C@H]1C(=O)N1CCC[C@H]1C(=O)N[C@@H](CO)C(=O)NCC(=O)N[C@@H](CCC(=O)O)C(N)=O` [Example 208], the EC50 came out at 336 nM on hGLP-1R [2]; 578 nM at human GcgR; 0.159 nM at hGIPR [3] (setting [6]); 3.72 nM on hGLP-1R [4] (setting [6]); 2.69 nM at hGcgR (setting [6]); 55.7 nM on human GLP1-R. For the same compound, on human GLP1-R, the “Internalization % TOP” value is 49.6%. Further, the “Relative Papp” value in series [5] was found to be 0.29.

Turning to `CC[C@H](C)[C@H](NC(=O)[C@H](Cc1ccccc1)NC(=O)[C@H](C)NC(=O)C(C)(C)NC(=O)[C@H](CCC(N)=O)NC(=O)[C@H](C)NC(=O)[C@H](CCCCNC(=O)COCCOCCNC(=O)CC[C@H](NC(=O)CCCCCCCCCCCCCCCCC(=O)O)C(=O)O)NC(=O)[C@H](CCCCN)NC(=O)[C@H](CC(=O)O)NC(=O)[C@H](CC(C)C)NC(=O)[C@](C)(CC(C)C)NC(=O)[C@H](CCCN)NC(=O)[C@H](CO)NC(=O)[C@H](Cc1ccccc1)NC(=O)[C@H](CC(=O)O)NC(=O)[C@H](CO)NC(=O)[C@@H](NC(=O)[C@H](Cc1ccccc1)NC(=O)[C@@H](NC(=O)CNC(=O)[C@H](CCC(N)=O)NC(=O)C(C)(C)NC(=O)[C@@H](N)Cc1ccc(O)cc1)[C@@H](C)O)[C@@H](C)O)C(=O)N[C@@H](CCC(=O)O)C(=O)N[C@@H](Cc1c[nH]c2ccccc12)C(=O)N[C@@H](CC(C)C)C(=O)N[C@@H](CC(C)C)C(=O)N[C@@H](CCC(=O)O)C(=O)NCC(=O)NCC(=O)N1CCC[C@H]1C(=O)N[C@@H](CO)C(=O)N[C@@H](CO)C(=O)NCC(=O)N[C@@H](C)C(=O)N1CCC[C@H]1C(=O)N1CCC[C@H]1C(=O)N1CCC[C@H]1C(=O)N[C@@H](Cc1c[nH]cn1)C(=O)NCC(=O)N[C@@H](CO)C(N)=O` [Example 249], the EC50 on hGIPR [1] stood at 22.5 nM; at hGLP-1R [2] it was 256 nM; on human GcgR, 604 nM; on hGIPR [3] (setting [6]), 0.173 nM; on hGcgR (setting [6]) it was 5.55 nM; on human GLP1-R it was 86.2 nM. In addition, on human GLP1-R, the “Internalization % TOP” value is recorded as 34.8%. In series [5], the “Relative Papp” value was determined as 0.04.

As to “H-Y[Aib]QGT[αMePhe(2-F)]TSD[4Pal]SI[αMeL]LD[Orn]K([AEEA-γGlu-C18 diacid])AQ[αMe4Pal][Orn]FI[dE][αMeY]LIEGGPSSGEPPPEGE-NH2 [Example 675]”, the EC50 on hGIPR [1] came to 1.16 nM; on hGLP-1R [2], 25 nM; at human GcgR it was 207 nM; on hGIPR [3], 0.0111 nM; at hGLP-1R [4], 0.254 nM; on hGcgR, 2.15 nM. Further, the “Relative Papp” value in series [5] is 0.36.

For “H-Y[Aib]QGT[αMePhe(2-F)]TSD[4Pal]SILLDKK([γGlu-γGlu-C18 diacid])AQ[Aib]AFIE[αMe4Pal]LEEGGPSSGAPPPSGTE-NH2 [Example 552]”, the concentration for a half-maximal effect (EC50) was 1.67 nM on hGIPR [1]; 86.2 nM on hGLP-1R [2]; 289 nM at human GcgR; 0.0177 nM on hGIPR [3]; 0.804 nM on hGLP-1R [4]; 2.53 nM on hGcgR. Also, in series [5], the “Relative Papp” value stood at 0.53.

Take “H-Y[Aib]QGT[αMePhe(2-F)]TSD[4Pal][αMeS]I[αMeL]LD[Orn]K([γGlu-γGlu-C18 diacid])AQ[αMe4Pal]EFI[dE][αMeY]LIEGGPSSGAPPPSGGGE-NH2 [Example 743]”: the EC50 was found to be 0.432 nM on hGIPR [1]; 21.2 nM on hGLP-1R [2]; 133 nM at human GcgR; 0.00694 nM on hGIPR [3]; 0.259 nM on hGLP-1R [4]; 1.49 nM on hGcgR. In addition, the “Relative Papp” value in series [5] came out at 0.56.

Regarding “H-Y[Aib]QGTFTSDFS[Orn][αMeL]LDKK([AEEA-γGlu-C18 diacid])AQ[Aib]AFIEYLLEGGPSSGAPPPEGS-NH2 [Example 130]”, the EC50 on hGIPR [1] was found to be 60.5 nM; at hGLP-1R [2], 865 nM; on human GcgR it was 1080 nM; on hGIPR [3] (setting [6]), 0.411 nM; at hGLP-1R [4] (setting [6]) it was 4.29 nM; at hGcgR (setting [6]), 3.74 nM. Moreover, the “Relative Papp” value in series [5] is on record as 0.06.

“H-Y[Aib]QGTFTSDFS[Orn][αMeL]LDKK([AEEA-AEEA-γGlu-C18 diacid])AQ[Aib]AFIEYLLE[Aib]GHSSGAPPPSGT-NH2 [Example 182]”: the EC50 at hGIPR [1] was 9.95 nM; at hGLP-1R [2], 398 nM; at human GcgR it was 1480 nM; on hGIPR [3] (setting [6]), 0.0781 nM; at hGLP-1R [4] (setting [6]) it was 4.8 nM; at hGcgR (setting [6]), 5.33 nM. Further, in series [5], the “Relative Papp” value amounted to 0.12.

Turning to “Y[Aib]QGTFTSDFS[Orn][αMeL]LDKK([AEEA-γGlu-C18 diacid])AQ[Aib]AFIEYLLE[dA]GPSSGEPPPSGE-NH2 [Example 135]”, the EC50 came to 23.4 nM on hGIPR [1]; 472 nM at hGLP-1R [2]; 557 nM at human GcgR; 0.246 nM at hGIPR [3] (setting [6]); 3.3 nM at hGLP-1R [4] (setting [6]); 2.53 nM on hGcgR (setting [6]). For the same compound, the “Relative Papp” value in series [5] is reported as 0.04.

Consider “H-Y[Aib]QGTFTSD[4Pal]S[Orn][αMeL]LDKK([AEEA-γGlu-C18 diacid])AQ[αMe4Pal]AFIEYLIE[Aib]GPSSGAPPPSGS-NH2 [Example 808]”, for which the EC50 at hGIPR [1] was determined as 27.3 nM; at hGLP-1R [2] it was 406 nM; on human GcgR, 286 nM; on hGIPR [3] (setting [6]) it was 0.187 nM; on hGLP-1R [4] (setting [6]), 3.58 nM; at hGcgR (setting [6]), 1.65 nM. Besides, in series [5], the “Relative Papp” value came to 0.29.

(Values after patent publication US20240270821A1, “GIP/GLP1/GCG TRI-RECEPTOR AGONISTS AND USES THEREOF” (priority 2023, published 2024).)
